Assay results reported in article PMC4657098, “A Review of the Updated Pharmacophore for the Alpha 5 GABA(A) Benzodiazepine Receptor Model” (International Journal of Medicinal Chemistry, 2015).

Experiments:
α2B = molecular target: T1, α2B (Homo sapiens, UniProt P18089); assay: PDSP receptor binding, α2B; conditions: PDSP primary screen at 10 µM
T1 construct: purchased NIMH PDSP (Psychoactive Drug Screening Program, Roth lab, Case Western Reserve)

M1 = molecular target: T2, M1 (Homo sapiens, UniProt P11229); assay: PDSP receptor binding, M1; conditions: PDSP primary screen at 10 µM
T2 construct: purchased NIMH PDSP (Psychoactive Drug Screening Program, Roth lab, Case Western Reserve)

α5β3γ2 GABAA/BzR = α5β3γ2 GABAA/BzR (Homo sapiens, UniProt P18507+P31644); assay: Competition binding to HEK cell membranes, α5β3γ2; set-up: expressed in transfected cells; conditions: Ki α5
M3 = molecular target: T3, M3 (Homo sapiens, UniProt P20309); assay: PDSP receptor binding, M3; conditions: PDSP primary screen at 10 µM
T3 construct: purchased NIMH PDSP (Psychoactive Drug Screening Program, Roth lab, Case Western Reserve)

D4 = molecular target: T4, D4 (Homo sapiens, UniProt P21917); assay: PDSP receptor binding, D4; conditions: PDSP primary screen at 10 µM
T4 construct: purchased NIMH PDSP (Psychoactive Drug Screening Program, Roth lab, Case Western Reserve)

α6β3γ2 BzR/GABA(A) = conditions: Figure 1; LTK cells; read-out: Binding affinity α6; cited from earlier work
α3β3γ2 GABAA receptor = conditions: cited from earlier work
α2A = molecular target: T5, α2A (Homo sapiens, UniProt P08913); assay: PDSP receptor binding, α2A; conditions: PDSP primary screen at 10 µM
T5 construct: purchased NIMH PDSP (Psychoactive Drug Screening Program, Roth lab, Case Western Reserve)

σ1 = molecular target: T6, σ1 (Homo sapiens, UniProt Q99720); assay: PDSP receptor binding, σ1; conditions: PDSP primary screen at 10 µM
T6 construct: purchased NIMH PDSP (Psychoactive Drug Screening Program, Roth lab, Case Western Reserve)

KOR = KOR (Homo sapiens, UniProt P41145); assay: PDSP receptor binding, KOR; conditions: Case Western Reserve University, read-out: KOR Ki (secondary binding)
α1β3γ2 GABAA/BzR = α1β3γ2 GABAA/BzR (Homo sapiens, UniProt P14867+P18507); assay: Competition binding to HEK cell membranes, α1β3γ2; set-up: expressed in transfected cells; conditions: Ki α1
D5 = molecular target: T7, D5 (Homo sapiens, UniProt P21918); assay: PDSP receptor binding, D5; conditions: PDSP primary screen at 10 µM
T7 construct: purchased NIMH PDSP (Psychoactive Drug Screening Program, Roth lab, Case Western Reserve)

Imidaz oline = assay: PDSP receptor binding, Imidazoline; conditions: PDSP primary screen at 10 µM
α5β3γ2 GABAA receptor = molecular target: T8, α5β3γ2 GABAA receptor (Homo sapiens, UniProt P18507+P31644); conditions: cited from earlier work
T8 construct: expressed in transfected cells; host or cells: Xenopus oocytes

5ht5a = molecular target: T9, 5ht5a (Homo sapiens, UniProt P47898); assay: PDSP receptor binding, 5ht5a; conditions: PDSP primary screen at 10 µM
T9 construct: purchased NIMH PDSP (Psychoactive Drug Screening Program, Roth lab, Case Western Reserve)

[1] = system: other receptors (PDSP panel); assay: Full PDSP panel receptor binding; conditions: NIMH PDSP, Case Western Reserve
NMDA = assay: PDSP receptor binding, NMDA; conditions: PDSP primary screen at 10 µM
α3β3γ2 GABAA/BzR = α3β3γ2 GABAA/BzR (Homo sapiens, UniProt P18507+P34903); assay: Competition binding to HEK cell membranes, α3β3γ2; set-up: expressed in transfected cells; conditions: Ki α3
Beta2 = molecular target: T10, Beta2 (Homo sapiens, UniProt P07550); assay: PDSP receptor binding, Beta2; conditions: PDSP primary screen at 10 µM
T10 construct: purchased NIMH PDSP (Psychoactive Drug Screening Program, Roth lab, Case Western Reserve)

5ht1d = molecular target: T11, 5ht1d (Homo sapiens, UniProt P28221); assay: PDSP receptor binding, 5ht1d; conditions: PDSP primary screen at 10 µM
T11 construct: purchased NIMH PDSP (Psychoactive Drug Screening Program, Roth lab, Case Western Reserve)

σ2 = assay: PDSP receptor binding, σ2; conditions: PDSP primary screen at 10 µM
H1 = molecular target: T12, H1 (Homo sapiens, UniProt P35367); assay: PDSP receptor binding, H1; conditions: PDSP primary screen at 10 µM
T12 construct: purchased NIMH PDSP (Psychoactive Drug Screening Program, Roth lab, Case Western Reserve)

H3 = molecular target: T13, H3 (Homo sapiens, UniProt Q9Y5N1); assay: PDSP receptor binding, H3; conditions: PDSP primary screen at 10 µM
T13 construct: purchased NIMH PDSP (Psychoactive Drug Screening Program, Roth lab, Case Western Reserve)

C57BL/6J mice = format: in vivo
Source text: Figure 3 XLi-093 (4) effects on cognition enhancement by Wenger et al. (data on statistical significance not shown, unpublished results). Effects of 4 on cognition from the mean delay achieved by C57BL/6J mice titrating delayed matching-to-position schedule.

MDR = assay: PDSP receptor binding, MDR; conditions: PDSP primary screen at 10 µM
M4 = molecular target: T14, M4 (Homo sapiens, UniProt P08173); assay: PDSP receptor binding, M4; conditions: PDSP primary screen at 10 µM
T14 construct: purchased NIMH PDSP (Psychoactive Drug Screening Program, Roth lab, Case Western Reserve)

5ht2a = molecular target: T15, 5ht2a (Homo sapiens, UniProt P28223); assay: PDSP receptor binding, 5ht2a; conditions: PDSP primary screen at 10 µM
T15 construct: purchased NIMH PDSP (Psychoactive Drug Screening Program, Roth lab, Case Western Reserve)

5ht7 = molecular target: T16, 5ht7 (Homo sapiens, UniProt P34969); assay: PDSP receptor binding, 5ht7; conditions: PDSP primary screen at 10 µM
T16 construct: purchased NIMH PDSP (Psychoactive Drug Screening Program, Roth lab, Case Western Reserve)

5ht1a = molecular target: T17, 5ht1a (Homo sapiens, UniProt P08908); assay: PDSP receptor binding, 5ht1a; conditions: PDSP primary screen at 10 µM
T17 construct: purchased NIMH PDSP (Psychoactive Drug Screening Program, Roth lab, Case Western Reserve)

5ht3 = molecular target: T18, 5ht3 (Homo sapiens, UniProt P46098); assay: PDSP receptor binding, 5ht3; conditions: PDSP primary screen at 10 µM
T18 construct: purchased NIMH PDSP (Psychoactive Drug Screening Program, Roth lab, Case Western Reserve)

M2 = molecular target: T19, M2 (Homo sapiens, UniProt P08172); assay: PDSP receptor binding, M2; conditions: PDSP primary screen at 10 µM
T19 construct: purchased NIMH PDSP (Psychoactive Drug Screening Program, Roth lab, Case Western Reserve)

α5β3γ2 BzR/GABA(A) = conditions: text b7; read-out: Ki at the α5β3γ2 subtype; cited from earlier work
Beta1 = molecular target: T20, Beta1 (Homo sapiens, UniProt P08588); assay: PDSP receptor binding, Beta1; conditions: PDSP primary screen at 10 µM
T20 construct: purchased NIMH PDSP (Psychoactive Drug Screening Program, Roth lab, Case Western Reserve)

α4β3γ2 GABAA/BzR = molecular target: T21, α4β3γ2 GABAA/BzR (Homo sapiens, UniProt P18507+P48169); assay: biochemical; format: binding
T21 construct: expressed in transfected cells; host or cells: LTK cells (given for XLi-093 only)

α1β3γ2 GABAA receptor = conditions: cited from earlier work
H4 = molecular target: T22, H4 (Homo sapiens, UniProt Q9H3N8); assay: PDSP receptor binding, H4; conditions: PDSP primary screen at 10 µM
T22 construct: purchased NIMH PDSP (Psychoactive Drug Screening Program, Roth lab, Case Western Reserve)

SERT = molecular target: T23, SERT (Homo sapiens, UniProt P31645); assay: PDSP receptor binding, SERT; conditions: PDSP primary screen at 10 µM
T23 construct: purchased NIMH PDSP (Psychoactive Drug Screening Program, Roth lab, Case Western Reserve)

α1A = molecular target: T24, α1A (Homo sapiens, UniProt P35348); assay: PDSP receptor binding, α1A; conditions: PDSP primary screen at 10 µM
T24 construct: purchased NIMH PDSP (Psychoactive Drug Screening Program, Roth lab, Case Western Reserve)

5ht1e = molecular target: T25, 5ht1e (Homo sapiens, UniProt P28566); assay: PDSP receptor binding, 5ht1e; conditions: PDSP primary screen at 10 µM
T25 construct: purchased NIMH PDSP (Psychoactive Drug Screening Program, Roth lab, Case Western Reserve)

NET = molecular target: T26, NET (Homo sapiens, UniProt P23975); assay: PDSP receptor binding, NET; conditions: PDSP primary screen at 10 µM
T26 construct: purchased NIMH PDSP (Psychoactive Drug Screening Program, Roth lab, Case Western Reserve)

C#Cc1ccc2c(c1)C(=O)N(C)Cc1c(C(=O)OCCCOC(=O)c3ncn4c3CN(C)C(=O)c3cc(C#C)ccc3-4)ncn1-2 [XLi-093 (4), 1,3-Bis(8-acetyleno-5,6-dihydro-5-methyl-6-oxo-4H-imidazo[1,5a][1,4]benzodiazepine-3-carboxy) propyl diester]
α2B binding (α2B): ∗ (“∗” indicates “primary missed” (<50% inhibition at 10 µM))
M1 binding (M1): ∗ (“∗” indicates “primary missed” (<50% inhibition at 10 µM))
Ki (α5β3γ2 GABAA/BzR): 0.015 µM
M3 binding (M3): ∗ (“∗” indicates “primary missed” (<50% inhibition at 10 µM))
D4 binding (D4): ∗ (“∗” indicates “primary missed” (<50% inhibition at 10 µM))
Ki (α6β3γ2 BzR/GABA(A)): > 2 µM
modulation of GABA induced chloride flux, α3β3γ2 (α3β3γ2 GABAA receptor; at 1 μM): did not modulate
influence on benzodiazepine (Valium) stimulation of GABA-induced current, α3β3γ2 (α3β3γ2 GABAA receptor): barely influenced
α2A binding (α2A): ∗ (“∗” indicates “primary missed” (<50% inhibition at 10 µM))
σ1 binding (σ1): ∗ (“∗” indicates “primary missed” (<50% inhibition at 10 µM))
Ki (KOR): 2.02 µM
Ki (α1β3γ2 GABAA/BzR): > 1 µM
D5 binding (D5): ∗ (“∗” indicates “primary missed” (<50% inhibition at 10 µM))
Imidaz oline binding (Imidaz oline): ∗ (“∗” indicates “primary missed” (<50% inhibition at 10 µM))
modulation of GABA induced chloride flux, α5β3γ2 (α5β3γ2 GABAA receptor; at 1 μM): very slightly inhibited
influence on benzodiazepine (Valium) stimulation of GABA-induced current, α5β3γ2 (α5β3γ2 GABAA receptor): shifted the diazepam dose response curve to the right
inhibition of diazepam-stimulated currents in α5β3γ2 receptors (α5β3γ2 GABAA receptor): dose dependently and completely inhibit
5ht5a binding (5ht5a): ∗ (“∗” indicates “primary missed” (<50% inhibition at 10 µM))
full panel receptor binding [1]: do not bind to other receptors at levels of concern
NMDA binding (NMDA): ∗ (“∗” indicates “primary missed” (<50% inhibition at 10 µM))
Ki (α3β3γ2 GABAA/BzR): 0.858 µM
Beta2 binding (Beta2): ∗ (“∗” indicates “primary missed” (<50% inhibition at 10 µM))
5ht1d binding (5ht1d): ∗ (“∗” indicates “primary missed” (<50% inhibition at 10 µM))
σ2 binding (σ2): ∗ (“∗” indicates “primary missed” (<50% inhibition at 10 µM))
H1 binding (H1): ∗ (“∗” indicates “primary missed” (<50% inhibition at 10 µM))
H3 binding (H3): ∗ (“∗” indicates “primary missed” (<50% inhibition at 10 µM))
performance (mean delay achieved) (C57BL/6J mice; C57BL/6J mice, preliminary data, unpublished results (Wenger et al.)): enhances performance
crossing of the blood brain barrier (C57BL/6J mice; inferred from the cognition effect in mice): does cross the blood brain barrier
MDR binding (MDR): ∗ (“∗” indicates “primary missed” (<50% inhibition at 10 µM))
M4 binding (M4): ∗ (“∗” indicates “primary missed” (<50% inhibition at 10 µM))
5ht2a binding (5ht2a): ∗ (“∗” indicates “primary missed” (<50% inhibition at 10 µM))
5ht7 binding (5ht7): ∗ (“∗” indicates “primary missed” (<50% inhibition at 10 µM))
5ht1a binding (5ht1a): ∗ (“∗” indicates “primary missed” (<50% inhibition at 10 µM))
5ht3 binding (5ht3): ∗ (“∗” indicates “primary missed” (<50% inhibition at 10 µM))
M2 binding (M2): ∗ (“∗” indicates “primary missed” (<50% inhibition at 10 µM))
Ki (α5β3γ2 BzR/GABA(A)): 0.015 µM
Beta1 binding (Beta1): ∗ (“∗” indicates “primary missed” (<50% inhibition at 10 µM))
Ki (α4β3γ2 GABAA/BzR): 1.55 µM
modulation of GABA induced chloride flux, α1β3γ2 (α1β3γ2 GABAA receptor; at 1 μM): did not modulate
influence on benzodiazepine (Valium) stimulation of GABA-induced current, α1β3γ2 (α1β3γ2 GABAA receptor): barely influenced
H4 binding (H4): ∗ (“∗” indicates “primary missed” (<50% inhibition at 10 µM))
SERT binding (SERT): ∗ (“∗” indicates “primary missed” (<50% inhibition at 10 µM))
α1A binding (α1A): ∗ (“∗” indicates “primary missed” (<50% inhibition at 10 µM))
5ht1e binding (5ht1e): ∗ (“∗” indicates “primary missed” (<50% inhibition at 10 µM))
NET binding (NET): ∗ (“∗” indicates “primary missed” (<50% inhibition at 10 µM))
